In patent US5449783A, “Diphenylthiazole derivative” (Hisamitsu Pharmaceutical Co., Inc., priority 1993, dated 1995):

What was measured:
[1] = system: adjuvant arthritis (edema of the hind paw); assay: Rat adjuvant arthritis experiment; type: in vivo, male Wistar rat; settings: oral, 10 mg/kg once a day for 7 days
Method: (Rat adjuvant arthritis experiment)
0.1 ml of 6 mg/ml Mycobacterium butyricum suspension in liquid paraffin was intracutaneously injected into the tail root of each male Wistar rat weighing about 200 g. 20 days thereafter, rats clearly suffering from arthritis in the hind paw were selected and divided into groups each comprising 7 animals.
A test compound was orally administered in a dose as specified below once a day for 7 days. Then the effect of the test compound on the adjuvant arthritis was examined by using an inhibition ratio on the edema of the hind paw as an indicator. The inhibition ratio was calculated according to the following equation.

[2] = system: carrageenin-induced paw edema; assay: Rat carrageenin-induced paw edema experiment B (intravenous); type: in vivo, Male Wistar rats; settings: 1 mg/kg, immediately before carrageenin, 3 hours after induction
Method: Rat (carrageenin-induced paw edema experiment B)
0.1 ml of 1% carrageenin (PICNIN A, mfd. by Zushi Kagaku K.K.) was subcutaneously injected into the right hind paw of each rat and the edema thus induced was measured with the lapse of time by using a device for measuring foot edema. A test compound was suspended in a 60% N,N-dimethylformamide solution in physiological saline and intravenously injected to the rat immediately before the injection of carrageenin.

[3] = system: carrageenin-induced paw edema; assay: Rat carrageenin-induced paw edema experiment A (oral); type: in vivo, Male Wistar rats; settings: 10 mg/kg, 1 hour before carrageenin, 3 hours after induction
Method: Rat (carrageenin-induced paw edema experiment A)
Male Wistar rats weighing 140 to 160 g were divided into groups each comprising 8 animals.
0.1 ml of 1% carrageenin (PICNIN A, mfd. by Zushi Kagaku K.K.) was subcutaneously injected into the right hind paw of each rat and the edema thus induced was measured with the lapse of time by using a device for measuring foot edema. A test compound was suspended in a 0.5% CMC solution and orally administered to the rat 1 hour before the injection of carrageenin. The results expressed in the inhibition ratio (average) of each test group to the control group, to which no compound had been orally administered, 3 hours after the induction of the reaction are given in Table 2.

[4] = system: acetic acid-induced writhing; assay: Mouse acetic acid-induced writhing experiment; type: in vivo, Male ddy mice; settings: oral, 20 mg/kg, 30 minutes before 0.6% acetic acid; writhing counted for 10 minutes
Method: (Mouse acetic acid-induced writhing experiment)
Male ddy mice weighing about 23 g were divided into groups each comprising 7 to 9 animals.
30 minutes after a test compound was orally administered, a 0.6% acetic acid solution in physiological saline was intraperitoneally administered in a dose of 0.1 ml per 10 g of the body weight. From 5 minutes after the intraperitoneal administration, the frequency of writhing was counted for 10 minutes to determine the inhibition ratio by comparing with the frequency of writhing in the control group.

[5] = system: biosynthesis of 5-HETE; assay: Effect of inhibiting biosynthesis of 5-HETE in neutrophiles; type: cell-based, Hartley guinea pigs; settings: 10^-6; A 23187, 14C-arachidonic acid
Method: (Effect of inhibiting biosynthesis of 5-HETE)
Hartley guinea pigs weighing 300 to 500 g were used.
0.2% oyster glycogen was intraperitoneally administered to each guinea pig and, after 16 hours, neutrophiles of the animal were harvested. […] After ceasing the reaction with 1N hydrochloric acid under ice-cooling, the reaction mixture was extracted with ethyl acetate. Then the extract was solidified by drying with nitrogen gas, dissolved in ethanol and developed on a TLC with a developer. Then the aimed part was scraped up and the radioactivity was measured with a liquid scintillation counter.

[6] = molecular target: T1, prostaglandin synthetase (Ovis aries, UniProt P05979); assay: Effect of inhibiting biosynthesis of prostaglandin E2; type: biochemical, sheep; settings: 10^-7; 10 minutes incubation
T1 construct: originating in sheep seminal vesicle; from tissue; host or cells: sheep seminal vesicle
T1 sequence (P05979 25-600): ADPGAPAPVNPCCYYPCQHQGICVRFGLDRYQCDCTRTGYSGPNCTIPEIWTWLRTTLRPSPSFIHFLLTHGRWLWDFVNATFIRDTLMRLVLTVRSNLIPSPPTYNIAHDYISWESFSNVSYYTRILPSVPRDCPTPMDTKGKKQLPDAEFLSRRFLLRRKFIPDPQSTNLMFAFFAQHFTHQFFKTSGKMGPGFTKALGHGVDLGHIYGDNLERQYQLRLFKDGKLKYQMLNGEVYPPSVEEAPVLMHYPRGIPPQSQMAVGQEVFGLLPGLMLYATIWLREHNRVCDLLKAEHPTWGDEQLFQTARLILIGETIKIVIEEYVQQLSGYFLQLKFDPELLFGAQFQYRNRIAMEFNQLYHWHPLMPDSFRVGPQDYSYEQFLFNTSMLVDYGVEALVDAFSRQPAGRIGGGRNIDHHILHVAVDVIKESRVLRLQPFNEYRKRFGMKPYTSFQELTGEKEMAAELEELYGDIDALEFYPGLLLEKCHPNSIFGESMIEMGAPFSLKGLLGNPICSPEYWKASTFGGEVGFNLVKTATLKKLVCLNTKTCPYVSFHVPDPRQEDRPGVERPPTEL
Method: (Effect of inhibiting biosynthesis of prostaglandin E2)
To a tris buffer solution containing 50 mM of glutathione and 50 mM of epinephrine were added prostaglandin synthetase (originating in sheep seminal vesicle) and a test drug dissolved in DMSO and incubated for 10 minutes. Then the reaction was ceased with 1 N hydrochloric acid under ice-cooling and the reaction mixture was extracted with ethyl ether. Then the extract was solidified by drying with nitrogen gas, dissolved in ethanol and developed on a TLC with a developer. Then the aimed part was scraped up and the radioactivity was measured with a liquid scintillation counter.

[7] = system: carrageenin-induced paw edema; assay: Rat carrageenin-induced paw edema experiment C (injected together with carrageenin into the paw); type: in vivo, Male Wistar rats; settings: 3 hours after induction
Method: Rat (carrageenin-induced paw edema experiment C)
Male Wistar rats weighing 160 to 170 g were divided into groups each comprising 7 animals.
0.1 ml of 1% carrageenin (PICNIN A, mfd. by Zushi Kagaku K.K.) containing a test compound was subcutaneously injected into the right hind paw of each rat and the edema thus induced was measured with the lapse of time by using a device for measuring foot edema.

[8] = as stated by prior reference A; cited from earlier work
[9] = as stated by prior reference A; cited from earlier work; remark: listed apart in the source
[10] = system: platelet aggregation; settings: as stated by prior reference A; cited from earlier work

| SMILES | Inhibition ratio [1] [%] | Inhibition ratio [2] [%] | Inhibition ratio [3] [%] | Inhibition ratio [4] [%] | Inhibition ratio [5] [%] | Inhibition ratio [6] [%] | Inhibition ratio ([7]; 0.003 mg/kg) [%] | hypocholesterolemic effect (in words) [8] | antiinflammatory and analgesic effects (in words) [9] | platelet aggregation inhibiting effect (in words) [10] | Inhibition ratio ([7]; 0.03 mg/kg) [%] |
| --- | --- | --- | --- | --- | --- | --- | --- | --- | --- | --- | --- |
| COc1ccc(-c2nc(NS(=O)(=O)C(F)(F)F)sc2-c2ccccc2)cc1 [Ex. 10] | 45.6 | 52.8 | 46.8 | 46.1 | 45.1 | 57.2 | 50.7 | – | – | – | – |
| COc1ccc(-c2sc(NS(=O)(=O)C(F)(F)F)nc2-c2ccccc2)cc1 [Ex. 32] | 34.6 | 48.1 | 52.3 | 28.6 | 44.8 | 52.2 | 50.4 | – | – | – | – |
| CNc1nc(-c2ccccc2)c(-c2ccccc2)s1 [2-methylamino-4,5-diphenyl-thiazole] | – | – | – | – | – | – | – | hypocholesterolemic effect | weak or scarcely any | platelet aggregation inhibiting effect | – |
| c1ccc(-c2nc(N3CCOCC3)sc2-c2ccccc2)cc1 [2-morpholino-4,5-diphenylthiazole] | – | – | – | – | – | – | – | hypocholesterolemic effect | weak or scarcely any | platelet aggregation inhibiting effect | – |
| O=S(=O)(Nc1nc(-c2ccccc2)c(-c2ccccc2)s1)C(F)(F)F [Ex. 1, 2-trifluoromethanesulfonylamino-4,5-diphenylthlazole] | 36.6 | 41.3 | 44.9 | 24.6 | 40.5 | 45.5 | 44.2 | – | – | – | – |
| O=[N+]([O-])c1ccc(-c2sc(NS(=O)(=O)C(F)(F)F)nc2-c2ccccc2)cc1 [Ex. 17] | 35.3 | 36.6 | 23.9 | 36.3 | 47.3 | 48.1 | 37.1 | – | – | – | – |
| O=S(=O)(Nc1nc(-c2ccccc2)c(-c2ccc(F)cc2)s1)C(F)(F)F [Ex. 37] | 44.9 | 46.4 | 56.2 | 18.1 | 48.7 | 43.9 | 49.8 | – | – | – | – |
| CC(Cc1ccc(O)c(O)c1)C(C)Cc1ccc(O)c(O)c1 (centres unmarked) [NDGA, nordihydroguairetic acid, reference compound] | – | – | – | – | 43.0 | – | – | – | – | – | – |
| CC(=O)N(C)c1nc(-c2ccccc2)c(-c2ccccc2)s1 [2-(N-methyl-N-acetyl)amino-4,5-diphenylthiazole] | – | – | – | – | – | – | – | hypocholesterolemic effect | weak or scarcely any | platelet aggregation inhibiting effect | – |
| COc1ccc2c(c1)c(CC(=O)O)c(C)n2C(=O)c1ccc(Cl)cc1 [indomethacin, reference compound] | – | 47.4 | – | – | – | – | – | – | – | – | 44.7 |
